Like-named read-outs stand apart in the source and are kept apart here.
Columns and labels:
A549 lung cancer cells = details: for Tumour Growth Inhibition (TGI): A549 tumours in nude mice, cisplatin 5 mg/kg; for Tumour Growth Inhibition (TGI) / mean tumour volume on day 21: oltipraz 100 mg/kg; for mean tumour volume on day 1: day 1 (initiation of treatment); for mean tumour volume on day 21: cisplatin 5 mg/kg day 2, vehicle control 536 mm^3
Procedure: (§1) Initiation of treatment was designated day 1.
A549 human lung cancer cells were obtained from ATCC. These cells were grown in F-12 supplemented with 10% Fetal Calf Serum (FCS), penicillin and streptomycin, and 2 mM L-Glutamine. Cells were sub-cultured by removing the medium, rinsing twice with sterile calcium-free and magnesium-free phosphate buffered saline (PBS) and adding 1 to 2 ml of 0.25% trypsin and 0.03% EDTA solution. The flask was allowed to sit at 37° C. until the cells detached. Cells were then sub-cultured at a ratio of 1:3.
(§2) Animals were acclimatized prior to study commencement.
Tumours were measured once every two days with micro-calipers, and tumour volume was calculated as (length×width)^3π/3. The tumour growth index (TGI) was calculated using the formula 100−(Vc*100/Vt), where Vc is the mean volume of the tumours in the control group and Vt is the mean volume of the tumours in the test group.
Tumour volumes were calculated from the length and width measurements taken on alternating days by calculating the mean radius (r), which was the sum of length and width divided by 4, and using the formula 4/3 πr^3 to calculate the volume.

[1] = formulated with CMC
[2] = oltipraz 100 mg/kg po days 1, 3, 8, 10, given with Cetuximab
Source text: as §1, §2
Groups were compared using the One-Way ANOVA method.

SMILES | Tumour Growth Inhibition (TGI) (A549 lung cancer cells) | mean tumour volume on day 1 (A549 lung cancer cells) | mean tumour volume on day 21 (A549 lung cancer cells) | amount that can be administered without significant toxicity resulting [1] | toxicity based on observations of survival and weight change [2] | average weight gain, % of starting weight by day 21 (female nude mice with A549 tumours, cisplatin 5 mg/kg sc day 2, oltipraz 100 mg/kg po (alone days 1, 3, 8, 10; combination days 1 and 3), day 21) | toxicity based on observations of survival and weight change (oltipraz alone 100 mg/kg po days 1, 3, 8, 10)
N.N.[Cl][Pt][Cl] [cisplatin, cis-diamminedichloridoplatinum(II)] | 48.8% | 93 mm^3 | 275 mm^3 |  |  |  | 
Cc1c(-c2cnccn2)ssc1=S [oltipraz, 4-methyl-5(2-pyrazinyl)-3H-1,2-dithiole-3-thione] | 62.3% | 93 mm^3 | 200 mm^3 | up to 2000 mg/kg | no evidence of toxicity | 4.9% | no evidence of toxicity

— US20110142829A1, “ANTI-TUMOUR COMPOSITIONS AND METHODS” (priority 2008, published 2011)
